The subject of one data set is sodium channel. Nature of the data set: Guanidine influx assay (in vitro). The format is cell-based, human or rat. The note with it: known cell line that expresses a sodium channel; read-out: IC50 Activity Level. The source says:
This example describes an in vitro assay for testing and profiling test agents against human or rat sodium channels stably expressed in cells of either an endogenous or recombinant origin. The assay is also useful for determining the IC-50 of a sodium channel blocking compound. The assay is based on the guanidine flux assay described by Reddy, N. L., et al., J Med Chem (1998), 41(17):3298-302.
The guanidine influx assay is a radiotracer flux assay used to determine ion flux activity of sodium channels in a high-throughput microplate-based format. The assay uses ^14C-guanidine hydrochloride in combination with various known sodium channel modulators, to assay the potency of test agents. Potency is determined by an IC-50 calculation. Selectivity is determined by comparing potency of the compound for the channel of interest to its potency against other sodium channels (also called ‘selectivity profiling’). […]
Cells expressing the channel of interest are grown according to the supplier or in the case of a recombinant cell in the presence of selective growth media such as G418 (Gibco/Invitrogen). The cells are disassociated from the culture dishes with an enzymatic solution (1×) Trypsin/EDTA (Gibco/Invitrogen) and analyzed for density and viability using haemocytometer (Neubauer). […]
IC-50 value of a test agent for a specific sodium channel may be determined using the above general method. […]

In general, melting point refers to the temperature of the solid-liquid transition. As to `O=C1N2CCCSc3cccc(c32)C12COc1cc3c(cc12)OCO3` (stereo not drawn) [Synthetic Example 1, 3′,4′-Dihydro-2′H-spiro[furo[2,3-f][1,3]benzodioxole-7,7′-[1,4]thiazepino[2,3,4-hi]indol]-6′-one], the melting point fell in the range of 216 to 217 °C.
For orientation: IC50 means the concentration that inhibits the measured activity by half. With `O=C1N2CCCCc3ccc(Br)c(c32)C12COc1cc3c(cc12)OCO3` (stereo not drawn) [Example 4], the IC50 in the data set with sodium channel was in the range of 10 to 100 nM.
For the molecule `O=C1N2CCCOc3cccc(c32)C12COc1cc3c(cc12)OCO3` (stereo not drawn) [Example 2], in the data set on sodium channel, the IC50 fell in the range of 100 to 1000 nM.

The values above are taken from patent US20110237567A9, “TRICYCLIC SPIRO-OXINDOLE DERIVATIVES AND THEIR USES AS THERAPEUTIC AGENTS” (XENON PHARMACEUTICALS INC., priority 2006, published 2011).
